One experiment concerns the target EGFR (Homo sapiens, UniProt P00533). Nature of the experiment: in vitro EGFR inhibition. The format is biochemical.
Another experiment concerns tubulin. Nature of the experiment: tubulin polymerization inhibition. It counts as biochemical. To be noted: read-out: Tubulin polymerization IC50.

Chain of EGFR (P00533 25-1210): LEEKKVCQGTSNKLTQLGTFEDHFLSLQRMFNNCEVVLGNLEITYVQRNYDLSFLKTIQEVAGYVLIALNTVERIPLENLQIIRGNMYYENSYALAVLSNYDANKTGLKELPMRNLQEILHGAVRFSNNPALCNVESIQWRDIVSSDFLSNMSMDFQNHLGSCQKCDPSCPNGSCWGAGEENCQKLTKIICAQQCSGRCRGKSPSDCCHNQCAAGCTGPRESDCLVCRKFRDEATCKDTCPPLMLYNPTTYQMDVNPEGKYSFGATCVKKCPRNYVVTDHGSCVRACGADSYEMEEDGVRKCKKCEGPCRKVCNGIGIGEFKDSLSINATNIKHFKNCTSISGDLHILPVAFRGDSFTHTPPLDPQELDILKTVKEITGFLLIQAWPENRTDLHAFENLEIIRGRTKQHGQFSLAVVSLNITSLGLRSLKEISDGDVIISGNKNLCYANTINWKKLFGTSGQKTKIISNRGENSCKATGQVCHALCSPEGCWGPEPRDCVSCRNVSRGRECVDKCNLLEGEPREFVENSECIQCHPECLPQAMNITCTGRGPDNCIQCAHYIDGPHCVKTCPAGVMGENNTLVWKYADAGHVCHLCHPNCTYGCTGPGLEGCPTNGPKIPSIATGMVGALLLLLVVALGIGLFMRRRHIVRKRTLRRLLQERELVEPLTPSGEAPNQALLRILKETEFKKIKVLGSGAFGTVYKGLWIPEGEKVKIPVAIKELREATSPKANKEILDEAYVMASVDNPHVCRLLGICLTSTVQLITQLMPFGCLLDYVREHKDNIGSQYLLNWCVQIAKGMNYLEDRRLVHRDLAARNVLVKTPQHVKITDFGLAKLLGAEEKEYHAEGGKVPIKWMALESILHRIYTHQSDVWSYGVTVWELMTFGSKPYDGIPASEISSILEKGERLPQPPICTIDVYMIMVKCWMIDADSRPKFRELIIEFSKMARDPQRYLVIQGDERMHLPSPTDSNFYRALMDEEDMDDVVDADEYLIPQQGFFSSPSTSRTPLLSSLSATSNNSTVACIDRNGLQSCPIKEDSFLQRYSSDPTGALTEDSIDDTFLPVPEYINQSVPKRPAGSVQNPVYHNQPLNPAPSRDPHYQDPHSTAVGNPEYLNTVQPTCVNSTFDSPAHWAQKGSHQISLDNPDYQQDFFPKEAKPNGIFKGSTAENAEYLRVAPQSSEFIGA

For `O=C1Nc2ccc(Cl)cc2/C1=C\C(=O)c1ccc(O)cc1` [4a, (E)-5-Chloro-3-(2-(4-hydroxyphenyl)-2-oxoethylidene)indolin-2-one], on EGFR, the midpoint of inhibition, the IC50, lay at 100 ± 70 nM.

Compound `Nc1ccc(C(=O)C=C2C(=O)Nc3ccc(Cl)cc32)cc1` [4b] yielded an IC50 on EGFR of 50 ± 60 nM. For `O=C1Nc2ccc(Cl)cc2C12CC(c1ccc(O)cc1)=NN2` (stereo not drawn) [5a, 5-Chloro-5′-(4-hydroxyphenyl)-2′,4′-dihydrospiro[indoline-3,3′-pyrazol]-2-one], the IC50 in the experiment with tubulin turned out to be 3850 ± 90 nM; at EGFR, 90 ± 50 nM. As to `Nc1ccc(C2=NNC3(C2)C(=O)Nc2ccc(Cl)cc23)cc1` (stereo not drawn) [5b, 5′-(4-Aminophenyl)-5-chloro-2′,4′-dihydrospiro[indoline-3,3′-pyrazol]-2-one], the IC50 with tubulin worked out at 4350 ± 110 nM; on EGFR it was 70 ± 90 nM. Regarding `COc1ccc(C2=NNC3(C2)C(=O)Nc2ccc(Cl)cc23)cc1` (stereo not drawn) [5c, 5-Chloro-5′-(4-methoxyphenyl)-2′,4′-dihydrospiro[indoline-3,3′-pyrazol]-2-one], it took 80 ± 80 nM to reach half-maximal inhibition against EGFR (IC50). Still for that read-out and setting: in the case of `O=C1Nc2ccc(Cl)cc2C12CC(c1ccc(Cl)cc1)=NN2` (stereo not drawn) [5d, 5-Chloro-5′-(4-chlorophenyl)-2′,4′-dihydrospiro[indoline-3,3′-pyrazol]-2-one] it was 40 ± 90 nM. Turning to “Tubulin polymerization inhibitor II [reference compound]”, the IC50 with tubulin came out at 4500 ± 130 nM.

What is called IC50 is the point on the concentration scale where inhibition reaches its midpoint.

Source of the values: PMC12178155 (RSC Advances, 2025).
